The record followed here is ChEMBL document CHEMBL1142202, “Putative role of beta-1,3 glucans in Candida albicans biofilm resistance” (2007).

In brackets after ≈: the same amount, converted by molar mass. Activity calls are given as the source filed them. The calls are words filed in the database; no cut-off is given here.

Experiment [1] has as its system Candida albicans. Nature of the experiment: Increase in antifungal activity against Candida albicans K1 biofilm cells assessed as 50 percent reduction of optical density in presence of beta 1,3 glucanase after 48 hrs by XTT assay. Type of experiment: functional. Background: Tetrazolium assays rely on reduction of a dye to a coloured formazan, in cell work by metabolically active cells.

Experiment [2] has as its system Candida albicans. Nature of the experiment: Increase in antifungal activity against Candida albicans K1 biofilm cells assessed as 80 percent reduction of optical density in presence of beta 1,3 glucanase after 48 hrs by XTT assay. Type of experiment: functional.
The subject of experiment [3] is Candida albicans. As to the kind of experiment: Antifungal activity against planktonic Candida albicans K1. The experiment is classed as functional.
Experiment [4] relates to Candida albicans. Nature of the experiment: Effect on biofilm cell viability of Candida albicans K1 at 1000 ug/ml. The experiment is classed as functional, organism-based.
The subject of experiment [5] is Candida albicans. Nature of the experiment: Antifungal activity against planktonic Candida albicans K1 in presence of biofilm material after 48 hrs by CLSI M27 A micro-broth method. Type of experiment: functional. As to conditions: K1, 48 h.
Experiment [6] deals with Candida albicans. Nature of the experiment: Antifungal activity against planktonic Candida albicans K1 in presence of laminarin after 48 hrs by CLSI M27 A micro-broth method. Type of experiment: functional. As to conditions: K1, 48 h.
Experiment [7] has as its system Candida albicans. As to the kind of experiment: Increase in drug binding to Candida albicans K1 biofilm cell walls, supernatant and matrix as compared to respective planktonic controls. Type of experiment: functional, organism-based.
Experiment [8] relates to Candida albicans. As to the kind of experiment: Antifungal activity against Candida albicans K1 biofilms in in-vivo rat catheter model in presence of beta 1,3-glucanase. The experiment is classed as functional, organism-based.

Turning to `C[C@@H]1[C@H](O)[C@@H](C)/C=C/C=C/C=C/C=C/C=C/C=C/C=C/[C@H](O[C@@H]2O[C@H](C)[C@@H](O)[C@H](N)[C@@H]2O)C[C@@H]2O[C@](O)(C[C@@H](O)C[C@@H](O)[C@H](O)CC[C@@H](O)C[C@@H](O)CC(=O)O[C@H]1C)C[C@H](O)[C@H]2C(=O)O` [AMPHOTERICIN B], the “fractional inhibitory concentration index (FICI)” value in the experiment on Candida albicans [1] is 0.2; in the experiment on Candida albicans [2], 0.21.

In the case of `OC(Cn1cncn1)(Cn1cncn1)c1ccc(F)cc1F` [FLUCONAZOLE], the MIC was 0.5 µg/mL (≈ 1.63 µM) in the experiment with Candida albicans [3], above 128 µg/mL in the experiment with Candida albicans [5] and above 128 µg/mL with Candida albicans [6]. In addition, in the experiment on Candida albicans [4], the result was inactive. In addition, the figures for the “fractional inhibitory concentration index (FICI)” value in the experiment with Candida albicans [1] and in the experiment with Candida albicans [2] were 0.31 and 0.1, respectively. Also, the outcome in the experiment with Candida albicans [7] and in the experiment on Candida albicans [8] was Active.
